# Test results published in patent US20260217767A1, “NOVEL A4B7 THIOETHER PEPTIDE DIMER ANTAGONISTS” (Protagonist Therapeutics, Inc., priority 2014, published 2026).
# Where a SMILES comes first, the peptide text is derived from it.
# Molecular target: T1, RPMI 8866 cells (Homo sapiens, UniProt P13612+P26010)
# T1 sequence (P13612 34-1032): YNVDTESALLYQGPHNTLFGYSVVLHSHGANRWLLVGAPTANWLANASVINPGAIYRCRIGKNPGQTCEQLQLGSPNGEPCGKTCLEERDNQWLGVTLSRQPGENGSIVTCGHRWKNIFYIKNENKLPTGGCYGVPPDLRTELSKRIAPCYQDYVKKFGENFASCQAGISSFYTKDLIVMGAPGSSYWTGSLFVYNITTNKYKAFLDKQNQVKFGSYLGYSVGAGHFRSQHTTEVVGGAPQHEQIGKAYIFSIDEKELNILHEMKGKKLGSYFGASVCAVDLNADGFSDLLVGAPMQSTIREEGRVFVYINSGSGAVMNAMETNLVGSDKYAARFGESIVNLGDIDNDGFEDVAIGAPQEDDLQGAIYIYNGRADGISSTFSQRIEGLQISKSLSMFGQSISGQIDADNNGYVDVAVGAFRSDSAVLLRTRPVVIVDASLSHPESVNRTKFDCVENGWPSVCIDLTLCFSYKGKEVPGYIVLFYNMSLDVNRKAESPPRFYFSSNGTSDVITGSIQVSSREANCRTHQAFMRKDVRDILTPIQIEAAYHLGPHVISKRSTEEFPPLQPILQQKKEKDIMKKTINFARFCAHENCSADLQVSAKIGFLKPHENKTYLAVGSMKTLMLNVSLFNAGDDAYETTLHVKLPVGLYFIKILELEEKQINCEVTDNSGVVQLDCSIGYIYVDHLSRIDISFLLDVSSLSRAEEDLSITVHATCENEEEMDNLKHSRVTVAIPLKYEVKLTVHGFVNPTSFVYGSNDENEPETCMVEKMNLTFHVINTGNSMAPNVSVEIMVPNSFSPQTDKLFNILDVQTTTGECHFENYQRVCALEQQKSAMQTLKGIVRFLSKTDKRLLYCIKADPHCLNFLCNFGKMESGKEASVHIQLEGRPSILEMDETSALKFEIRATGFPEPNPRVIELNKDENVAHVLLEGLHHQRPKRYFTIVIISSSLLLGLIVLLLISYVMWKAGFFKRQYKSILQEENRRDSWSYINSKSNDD
# T1 sequence (P26010 20-798): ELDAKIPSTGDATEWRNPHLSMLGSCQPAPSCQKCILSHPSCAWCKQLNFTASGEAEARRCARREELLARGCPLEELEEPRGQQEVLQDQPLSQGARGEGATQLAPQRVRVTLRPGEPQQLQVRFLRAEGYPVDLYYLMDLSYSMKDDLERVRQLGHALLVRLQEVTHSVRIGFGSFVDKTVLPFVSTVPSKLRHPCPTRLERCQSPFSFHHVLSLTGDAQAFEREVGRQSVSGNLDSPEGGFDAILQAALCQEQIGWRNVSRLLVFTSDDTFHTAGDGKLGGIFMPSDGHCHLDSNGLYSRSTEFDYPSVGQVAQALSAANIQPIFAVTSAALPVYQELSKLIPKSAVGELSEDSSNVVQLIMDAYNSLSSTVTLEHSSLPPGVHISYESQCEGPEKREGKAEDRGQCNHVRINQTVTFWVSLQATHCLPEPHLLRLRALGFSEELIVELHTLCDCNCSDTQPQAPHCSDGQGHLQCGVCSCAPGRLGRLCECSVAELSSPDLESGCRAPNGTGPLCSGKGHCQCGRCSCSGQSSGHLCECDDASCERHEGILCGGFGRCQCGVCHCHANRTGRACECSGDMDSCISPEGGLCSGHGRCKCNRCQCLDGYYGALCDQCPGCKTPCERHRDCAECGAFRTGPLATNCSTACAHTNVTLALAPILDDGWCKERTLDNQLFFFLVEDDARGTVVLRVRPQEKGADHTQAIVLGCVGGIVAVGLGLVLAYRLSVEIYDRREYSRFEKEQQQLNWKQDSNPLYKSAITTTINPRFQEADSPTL
# Assay: α4β7-MAdCAM Cell Adhesion Assay
# Format: cell-based
# Settings: thioether monomer peptides, Table 6; read-out: Cell-Adhesion A4B7
# Method: α4β7-MAdCAM Cell Adhesion Assay
# RPMI 8866 cells (Sigma #95041316) were cultured in RPMI 1640 HEPES medium (Invitrogen #22400-089) supplemented with 10% serum (Fetal Bovine Serum, Invitrogen #16140-071), 1 mM sodium pyruvate (Invitrogen #11360-070), 2 mM L-glutamine (Invitrogen #25030-081) and Penicillin-Streptomycin (Invitrogen #15140-122) at 100 units of penicillin and 100 μg of streptomycin per ml. The cells were washed two times in DMEM medium (ATCC #30-2002) supplemented with 0.1% BSA, 10 mM HEPES pH 7 and 1 mM MnCl2. The cells were re-suspended in supplemented DMEM medium at a density of 4×10^6 cells/ml.
# A Nunc MaxiSorp plate was coated with rh MAdCAM-1/Fc Chimera (R&D #6065-MC) at 200 ng per well in 50 ul per well in 1×PBS and incubated at 4° C. overnight. The solution was then removed by shaking, blocked with 250 ul per well PBS containing 1% BSA, and incubated at 37° C. for 1 hr. The solution was removed by shaking. Peptides were diluted by serial dilution in a final volume of 50 ul per well (2× concentration). To each well, 50 ul of cells (200,000 cells) were added and the plate was incubated at 37° C., 5% CO2 for 30-45 min to allow cell adhesion. The wells were washed manually three times (100 ul per wash) with supplemented DMEM. After the final wash, 100 μl/well of supplemented DMEM and 10 ul/well of MTT reagent (ATTC cat #30-1010K) were added. The plate was incubated at 37° C., 5% CO2 for 2-3 hrs until a purple precipitate is visible. 100 ul of Detergent Reagent (ATTC cat #30-1010K) was added to each well. The plate was covered from the light, wrapped in Parafilm to prevent evaporation, and left overnight at room temperature in the dark. The plate was shaken for 5 min and the absorbance at 570 nm is measured. To calculate the dose response, the absorbance value of control wells not containing cells was subtracted from each test well.
row,Compound,IC50 [µM]
1,"CC(C)C[C@@H]1NC(=O)[C@H]([C@@H](C)O)NC(=O)[C@H](CC(=O)O)NC(=O)[C@H](CO)NC(=O)[C@H](CCCNC(=N)N)N(C)C(=O)c2ccc(cc2)CSC(C)(C)[C@@H](C(=O)N[C@@H](Cc2c[nH]c3ccccc23)C(=O)N[C@H](CCC(=O)O)C(=O)N[C@H](CCCCN)C(N)=O)NC1=O [compound 112] (HELM PEPTIDE1{[meR].S.D.T.L.[Pen].W.[dE].[dK].[am]}|CHEM1{[O=C(c1ccc(C[*:2])cc1)[*:1]]}$PEPTIDE1,CHEM1,1:R1-1:R1|PEPTIDE1,CHEM1,6:R3-1:R2$$$V2.0)",> 1
2,"CC(C)C[C@@H]1NC(=O)[C@H]([C@@H](C)O)NC(=O)[C@H](CC(=O)O)NC(=O)[C@H](CO)NC(=O)[C@H](CCCNC(=N)N)N(C)C(=O)c2ccccc2CSC[C@@H](C(=O)N2Cc3ccccc3C[C@H]2C(=O)N[C@H](CCCCN)C(=O)O)NC1=O [compound 118] (HELM PEPTIDE1{[meR].S.D.T.L.C.[Tic].[dK]}|CHEM1{[O=C(c1ccccc1C[*:2])[*:1]]}$PEPTIDE1,CHEM1,1:R1-1:R1|PEPTIDE1,CHEM1,6:R3-1:R2$$$V2.0)",0.1 to 1

# Same assay, conditions: thioether peptide dimers, Table 7; read-out: Cell-Adhesion A4B7
row,Compound,IC50 [µM]
1,"CC(C)C[C@@H]1NC(=O)[C@H]([C@@H](C)O)NC(=O)[C@H](CCC(=O)O)NC(=O)[C@H](CO)NC(=O)[C@H](CCCNC(=N)N)N(C)C(=O)c2ccccc2CSC(C)(C)[C@@H](C(=O)N[C@@H](Cc2ccccc2)C(=O)N[C@H](CCC(=O)O)C(=O)N[C@H](CCCCN)C(N)=O)NC1=O [compound 189] (HELM PEPTIDE1{[meR].S.E.T.L.[Pen].F.[dE].[dK].[am]}|CHEM1{[O=C(c1ccccc1C[*:2])[*:1]]}$PEPTIDE1,CHEM1,1:R1-1:R1|PEPTIDE1,CHEM1,6:R3-1:R2$$$V2.0)",> 1
2,"CC(C)C[C@@H]1NC(=O)[C@H]([C@@H](C)O)NC(=O)[C@H](CC(=O)O)NC(=O)[C@H](CO)NC(=O)[C@H](CCCNC(=N)N)N(C)C(=O)c2ccccc2CSC[C@@H](C(=O)N[C@@H](Cc2c[nH]c3ccccc23)C(=O)N[C@@H](CCC(=O)O)C(=O)N[C@H](CCCCN)C(N)=O)NC1=O [compound 145] (HELM PEPTIDE1{[meR].S.D.T.L.C.W.E.[dK].[am]}|CHEM1{[O=C(c1ccccc1C[*:2])[*:1]]}$PEPTIDE1,CHEM1,1:R1-1:R1|PEPTIDE1,CHEM1,6:R3-1:R2$$$V2.0)",0.025 to 0.1
3,"CC(C)C[C@@H]1NC(=O)[C@H]([C@@H](C)O)NC(=O)[C@H](CC(=O)O)NC(=O)[C@H](CO)NC(=O)[C@H](CCCNC(=N)N)N(C)C(=O)c2ccccc2CSC(C)(C)[C@@H](C(=O)N[C@@H](Cc2c[nH]c3ccccc23)C(=O)N[C@H](CCC(=O)O)C(=O)N[C@H](Cc2ccccc2)C(=O)N[C@H](CCCCN)C(N)=O)NC1=O [compound 198] (HELM PEPTIDE1{[meR].S.D.T.L.[Pen].W.[dE].[dF].[dK].[am]}|CHEM1{[O=C(c1ccccc1C[*:2])[*:1]]}$PEPTIDE1,CHEM1,1:R1-1:R1|PEPTIDE1,CHEM1,6:R3-1:R2$$$V2.0)",< 0.025
4,"221 (RSDTLCXK; not fully specified; CROSSLINK - N-term 2-Benzyl with a thioether bond between the N-term and the residue at position 6; MOD_RES 1 N-Methyl Arginine; SITE 7 (3S-)-1,2,3,4-tetrahydroisoquinoline-3-carboxylic acid; SITE 8 D-Lys; SITE 8 C-term OH) [compound 221]",0.025 to 0.1
5,"CC(C)C[C@@H]1NC(=O)[C@H]([C@@H](C)O)NC(=O)[C@H](CC(=O)O)NC(=O)[C@H](CO)NC(=O)[C@H](CCCNC(=N)N)N(C)C(=O)c2ccccc2CSC[C@@H](C(=O)N[C@H](Cc2ccccc2)C(=O)N[C@@H](CCC(=O)O)C(=O)N[C@H](CCCCN)C(N)=O)NC1=O [compound 186] (HELM PEPTIDE1{[meR].S.D.T.L.C.[dF].E.[dK].[am]}|CHEM1{[O=C(c1ccccc1C[*:2])[*:1]]}$PEPTIDE1,CHEM1,1:R1-1:R1|PEPTIDE1,CHEM1,6:R3-1:R2$$$V2.0)",0.025 to 0.1
6,180 (RSDTLCXEK; not fully specified; CROSSLINK - N-term 2-Benzyl with a thioether bond between the N-term and the residue at position 6; MOD_RES 1 N-Methyl Arginine; SITE 7 aminoindan-2-carboxylic acid; SITE 8 D-Glu; SITE 9 D-Lys; SITE 9 C-term NH2) [compound 180],0.1 to 1
7,"CC(C)C[C@@H]1NC(=O)[C@H]([C@@H](C)O)NC(=O)[C@H](CC(=O)O)NC(=O)[C@H](CO)NC(=O)[C@H](CCCNC(=N)N)N(C)C(=O)c2ccccc2CSC(C)(C)[C@@H](C(=O)N[C@@H](Cc2c[nH]c3ccccc23)C(=O)N[C@H](CCC(=O)O)C(=O)N[C@@H](Cc2ccccc2)C(=O)N[C@H](CCCCN)C(N)=O)NC1=O [compound 192] (HELM PEPTIDE1{[meR].S.D.T.L.[Pen].W.[dE].F.[dK].[am]}|CHEM1{[O=C(c1ccccc1C[*:2])[*:1]]}$PEPTIDE1,CHEM1,1:R1-1:R1|PEPTIDE1,CHEM1,6:R3-1:R2$$$V2.0)",< 0.025
8,"CC(C)C[C@@H]1NC(=O)[C@H]([C@@H](C)O)NC(=O)[C@H](CC(=O)O)NC(=O)[C@H](CO)NC(=O)[C@H](CCCNC(=N)N)N(C)C(=O)C(C)SC(C)(C)[C@@H](C(=O)N[C@@H](Cc2c[nH]c3ccccc23)C(=O)N[C@H](CCCCN)C(N)=O)NC1=O (single isomer, unassigned) [compound 148]",> 1
9,"CC(C)C[C@@H]1NC(=O)[C@H]([C@@H](C)O)NC(=O)[C@H](CC(=O)O)NC(=O)[C@H](CO)NC(=O)[C@H](CCCNC(=N)N)N(C)C(=O)c2ccccc2CSC(C)(C)[C@@H](C(=O)N[C@@H](Cc2c[nH]c3ccccc23)C(=O)N[C@H](CCC(=O)O)C(=O)N[C@H](Cc2c[nH]cn2)C(=O)N[C@H](CCCCN)C(N)=O)NC1=O [compound 199] (HELM PEPTIDE1{[meR].S.D.T.L.[Pen].W.[dE].[dH].[dK].[am]}|CHEM1{[O=C(c1ccccc1C[*:2])[*:1]]}$PEPTIDE1,CHEM1,1:R1-1:R1|PEPTIDE1,CHEM1,6:R3-1:R2$$$V2.0)",< 0.025
